From US11236087B2, “Highly active pyrazolo-piperidine substituted indole-2-carboxamides active against the hepatitis B virus (HBV)” (AiCuris GmbH & Co. KG, priority 2017, dated 2022) come the findings set out here.

Read-outs that look alike come from different tables or passages of the source.

Data set [1] relates to HBV. Kind of data set: Determination of HBV DNA from the supernatants of HepAD38 cells (anti-HBV activity). It counts as cell-based, hepatitis B virus. The following applies: HBV DNA in HepAD38 supernatant, day 6, qPCR, read-out: Cell Activity (EC50). The method in brief:
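HepAD38 cells, tetracycline withdrawn to induce HBV, treated with serial half-log compound dilutions; on day 6 HBV DNA purified from filtered supernatant and quantified by real-time PCR against HBV plasmid standards; EC50 from relative copy numbers by non-linear regression, three experiments in triplicate.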
(In qPCR the cycle at which signal appears reflects the starting amount.)

Data set [2] relates to HepAD38 cells. As to the kind of experiment: Cell viability assay (AlamarBlue) in HepAD38 cells. The following applies: HepAD38 cells with 0.3 μg/ml tetracycline, six days incubation, AlamarBlue.
For data set [3], the target named is T1, HBV core protein (UniProt P03146).
T1 construct: fused on or other part: BODIPY-FL maleimide label on the C-terminal Cys150
As to the kind of experiment: Biochemical capsid assembly assay (fluorescence quenching). Set-up: species or system hepatitis B virus. The method in brief:
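Purified E. coli-expressed HBV core protein (aa 1-149 plus Cys150), BODIPY-FL maleimide-labelled, at 1.0-2.0 μM in 50 mM HEPES pH 7.5 with 0.5% DMSO was used. Compounds were tested at 8 concentrations (0.5-log dilutions from 100, 31.6 or 10 μM). Assembly was started with NaCl ([…]), and fluorescence quenching was read after 6 min (ex 477/em 525 nm). EC50 was determined by non-linear regression.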

Data set [4] is described as follows: Cell viability assay (AlamarBlue) in HepAD38 cells. Particulars: human. A general note: The colour change of resazurin is a common sign of viable cells or microbes.
The mark [5] stands for this setting: BODIPY-FL labelled core protein, 300 μM NaCl, read 6 min after start; read-out: Assembly Activity (IC50).
The mark [6] stands for this setting: read-out: Assembly Activity (IC50); BODIPY-FL labelled core protein, 300 μM NaCl, read 6 min after start.

A word on the EC50: it is the concentration at which the effect is half-maximal. What is called CC50 is the concentration that lowers cell viability or growth by half. The IC50 is the midpoint of a concentration-inhibition curve.

T1 sequence (P03146 whole entry, looked up, the tested form may be a part): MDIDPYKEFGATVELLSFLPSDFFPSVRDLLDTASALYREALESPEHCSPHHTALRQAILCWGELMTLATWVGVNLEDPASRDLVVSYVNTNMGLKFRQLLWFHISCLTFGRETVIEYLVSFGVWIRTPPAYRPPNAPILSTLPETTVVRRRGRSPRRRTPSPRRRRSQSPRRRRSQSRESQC

With “3-{1-[5-(1H-indole-2-carbonyl)-2H,4H,5H,6H,7H-pyrazolo[4,3-c]pyridin-3-yl]-N-methylformamido}-N-methanesulfonylpropanamide [Example 244]”, the EC50 in data set [1] is less than 100 µM. The molecule also registered a 50% cytotoxic concentration (CC50) in data set [2] greater than 10 µM.

As for “5-(4-chloro-5-fluoro-1H-indole-2-carbonyl)-N-[1-(methoxymethyl)cyclopropyl]-N-methyl-1H,4H,5H,6H,7H-pyrazolo[4,3-c]pyridine-3-carboxamide [Example 268]”, the EC50 in data set [1] is less than 1 µM. Moreover, the IC50 in data set [3] (setting [5]) was less than 5 µM. Besides, in data set [2], the half-maximal cytotoxic concentration (CC50) was greater than 10 µM.

As to “5-[4-(1,1-difluoroethyl)-1H-indole-2-carbonyl]-N-[1-(methoxymethyl)cyclopropyl]-N-methyl-1H,4H,5H,6H,7H-pyrazolo[4,3-c]pyridine-3-carboxamide [Example 301]”, the concentration for a half-maximal effect (EC50) in data set [1] was less than 1 µM. The IC50 in data set [3] (setting [5]) was less than 5 µM. For the same molecule, the half-maximal cytotoxic concentration (CC50) in data set [2] is greater than 10 µM.

In the case of `CCOCC1(N(C)C(=O)c2[nH]nc3c2CN(C(=O)c2cc4c(Cl)cc(F)cc4[nH]2)CC3)CC1` [Example 365, 5-(4-chloro-6-fluoro-1H-indole-2-carbonyl)-N-[1-(ethoxymethyl)cyclopropyl]-N-methyl-2H,4H,5H,6H,7H-pyrazolo[4,3-c]pyridine-3-carboxamide], the concentration for a half-maximal effect (EC50) in data set [1] (Hepatitis B virus, 144 h) was less than 1 µM. For the same molecule, the IC50 in data set [3] (setting [6]) was less than 5 µM. For the same molecule, in data set [4], the CC50 at 6 days is greater than 10 µM.

Take `CCOCC1(N(C)C(=O)c2[nH]nc3c2CN(C(=O)c2cc4c(C)cc(F)cc4[nH]2)CC3)CC1` [Example 366, N-[1-(ethoxymethyl)cyclopropyl]-5-(6-fluoro-4-methyl-1H-indole-2-carbonyl)-N-methyl-2H,4H,5H,6H,7H-pyrazolo[4,3-c]pyridine-3-carboxamide]: the EC50 in data set [1] (Hepatitis B virus, 144 h) is less than 1 µM. For the same molecule, the 50% inhibitory concentration (IC50) in data set [3] (setting [6]) was less than 5 µM. The same molecule yielded a 50% cytotoxic concentration (CC50) at 6 days in data set [4] greater than 10 µM.

`CCOCC1(N(C)C(=O)c2[nH]nc3c2CN(C(=O)c2cc4cccc(F)c4[nH]2)CC3)CC1` [Example 367, N-[1-(ethoxymethyl)cyclopropyl]-5-(7-fluoro-1H-indole-2-carbonyl)-N-methyl-2H,4H,5H,6H,7H-pyrazolo[4,3-c]pyridine-3-carboxamide]: the EC50 in data set [1] (Hepatitis B virus, 144 h) was less than 1 µM. Further, in data set [3] (setting [6]), the IC50 was less than 5 µM. In data set [4], this molecule came in with a half-maximal cytotoxic concentration (CC50) at 6 days greater than 10 µM.

For `CN(C(=O)c1[nH]nc2c1CN(C(=O)c1cc3ccccc3[nH]1)CC2)C1(c2cocn2)CC1` [Example 368, 5-(1H-indole-2-carbonyl)-N-methyl-N-[1-(1,3-oxazol-4-yl)cyclopropyl]-2H,4H,5H,6H,7H-pyrazolo[4,3-c]pyridine-3-carboxamide], the concentration for a half-maximal effect (EC50) in data set [1] (Hepatitis B virus, 144 h) was less than 1 µM. Moreover, the IC50 in data set [3] (setting [6]) is less than 5 µM. The CC50 at 6 days in data set [4] is greater than 10 µM.

Take “N-(2,3-dihydroxypropyl)-5-(1H-indole-2-carbonyl)-N-methyl-2H,4H,5H,6H,7H-pyrazolo[4,3-c]pyridine-3-carboxamide [Example 253]”: the concentration for a half-maximal effect (EC50) in data set [1] lay in the range of 1 to 25 µM. In addition, the concentration for half-maximal inhibition (IC50) in data set [3] (setting [5]) lay in the range of 5 to 10 µM. Further, the CC50 in data set [2] was greater than 10 µM.

“N-[1-(methoxymethyl)cyclopropyl]-N-methyl-5-(4-methyl-1H-indole-2-carbonyl)-1H,4H,5H,6H,7H-pyrazolo[4,3-c]pyridine-3-carboxamide [Example 260]”: in data set [1], the EC50 was less than 1 µM. For the same molecule, the IC50 in data set [3] (setting [5]) is less than 5 µM. Further, in data set [2], the CC50 was greater than 10 µM.

“N-ethyl-5-(1H-indole-2-carbonyl)-N-(2-methoxyethyl)-1H,4H,5H,6H,7H-pyrazolo[4,3-c]pyridine-3-carboxamide [Example 294]”: the concentration for a half-maximal effect (EC50) in data set [1] was less than 1 µM. For the same molecule, the IC50 in data set [3] (setting [5]) lay in the range of 5 to 10 µM. This molecule also returned a 50% cytotoxic concentration (CC50) in data set [2] greater than 10 µM.

With “tert-butyl N-(2-{1-[5-(1H-indole-2-carbonyl)-2H,4H,5H,6H,7H-pyrazolo[4,3-c]pyridin-3-yl]-N-methylformamido}ethyl)carbamate [Example 281]”, in data set [1], the concentration for a half-maximal effect (EC50) lay in the range of 1 to 25 µM. Further, the IC50 in data set [3] (setting [5]) is less than 100 µM. The molecule also yielded a 50% cytotoxic concentration (CC50) in data set [2] greater than 10 µM.
